Data as given in PMC8839448, “Novel Pyridothienopyrimidine Derivatives: Design, Synthesis and Biological Evaluation as Antimicrobial and Anticancer Agents” (Molecules, 2022).
≈ marks a conversion by molar mass, not a printed value. Where “and” joins values, the source holds several entries; their conditions need not be identical. Equal values may be shown once. Read-outs that look alike come from different tables or passages of the source.

Legend:
Candida albicans 10231 = assay: In vitro antifungal activity, MIC by broth dilution; format: cell-based; details: yeast, read-out: MIC C. albicans
Candida tropicals 750 = assay: as above; format: cell-based; details: yeast, read-out: MIC C. tropicals
[1] = system: Saccharomycese cerevisiae; assay: as above; format: cell-based; details: Saccharomyces cerevisiae, yeast, read-out: MIC S. cerevisiae
Aspergillus flavus = assay: as above; format: cell-based; details: fungi
[2] = system: Aspergillus niger EM77 (KF774181); assay: as above; format: cell-based; details: fungi
[3] = system: all the tested yeasts and fungi strains; assay: Antifungal MIC, range over the panel; format: cell-based
[4] = system: five bacterial and five fungal strains; assay: Antimicrobial MIC, range over bacterial and fungal strains; format: cell-based; details: for MIC range of the reference drugs: range over strains
[5] = system: hepatocellular carcinoma (HepG2) cells; assay: Cytotoxicity, MTT assay; format: cell-based; details: Homo sapiens, read-out: Cytotoxic activity IC50 HepG2
[6] = system: breast cancer (MCF-7) cells; assay: Cytotoxicity, MTT assay; format: cell-based, human; details: read-out: Cytotoxic activity IC50 MCF7
[7] = Cytotoxicity against normal cells, MTT assay; details: human, WISH normal cells
Description: The cytotoxicity was estimated as IC50 in μM for the tested compounds and the reference drug doxorubicin, and are listed in Table 3.

[8] = system: Staphylococcus aureus 25923; assay: In vitro antibacterial activity, MIC by broth dilution; format: cell-based; details: Gram +ve bacteria, read-out: MIC S. aureus
Bacillus subtilis 6633 = assay: as above; format: cell-based; details: Gram +ve bacteria, read-out: MIC B. subtilis
Bacillus cereus 33018 = assay: as above; format: cell-based; details: Gram +ve bacteria, read-out: MIC B. cereus
Escherichia coli 8739 = assay: as above; format: cell-based; details: Gram −ve bacteria
[9] = system: Salmonella typhimurium 14028; assay: as above; format: cell-based; details: Salmonella enterica, Gram −ve bacteria, read-out: MIC S. typhimurium
EGFR kinase = EGFR kinase (Homo sapiens, UniProt P00533); assay: In vitro EGFR kinase inhibitory assay (Kinase-Glo MAX kit); details: for IC50: EGFR IC50, EGFR kinase assay kit, triplicate, ± SD
Protocol: The assay kit is designed to measure EGFR Kinase activity for screening applications using Kinase-Glo® MAX as a detection reagent. The luminescence was measured using a microplate reader (Infinite M200 microplate reader, Tecan, Männedorf, Switzerland) [54]. All assays were performed in triplicate and the relative inhibition (%) of inhibitors was then calculated via comparison with the control with no inhibitor.
In vitro EGFR kinase assay
The assay Kit is designed to measure EGFR Kinase
activity for screening applications using Kinase-Glo® MAX as a detection reagent
using Kinase-Glo® MAX as a detection reagent. Thaw 5x Kinase Buffer 1: ATP and
PTK substrate Poly (Glu:Tyr 4:1) (10 mg/ml) kinase was provided. Then the master
mixture was prepared: N wells x (6 μl 5x Kinase Buffer 1 + 1 µl ATP (500 µM) + 1
µl PTK substrate Poly (Glu:Tyr 4:1) (10 mg/ml)+ 17 μl water) and 25 μl of the
mixture was added to every well. The tested compounds were dissolved in DMSO,
well labeled as “Positive Control", 5 μl of the same solution of the reference drug
erlotinib and “Blank”, 5 μl of the same solution without inhibitor (Inhibitor buffer).
ml of 1x Kinase Buffer 1) was prepared by mixing 600 µl of 5x Kinase Buffer 1 with
The reaction initiated by adding 20 µl of diluted EGFR enzyme to the wells designated “Positive Control” and "Test Inhibitor Control". Incubate at 30°C for 40
minutes. Thaw Kinase-G lo Max reagent. After the 40 minute reaction, 50 µl of
Kinase-Glo Max reagent was added to each well. The plate was covered with
aluminum foil and incubate at room temperature for 15 minutes. Then the
luminescence was measured using the microplate reader (Infinite M200 microplate
reader, Tecan, Männedorf, Switzerland). All assays were performed in triplicate. The
relative inhibition (%) of inhibitors were then calculated compared to the control with
no inhibitor. Then the IC50 values and their standard deviation (SD) for the tested
compounds and the reference drug were determined in (nM).

five bacterial strains = assay: Antibacterial MIC, range over the panel; format: cell-based
[10] = system: HepG2 and MCF-7 cancer cell lines; assay: Cytotoxicity, MTT assay, range over both cancer cell lines; format: cell-based, human; details: Homo sapiens; range over HepG2 and MCF-7; read-out: IC50 range, cytotoxic activity against both cell lines

Sequence of EGFR kinase (P00533 25-1210): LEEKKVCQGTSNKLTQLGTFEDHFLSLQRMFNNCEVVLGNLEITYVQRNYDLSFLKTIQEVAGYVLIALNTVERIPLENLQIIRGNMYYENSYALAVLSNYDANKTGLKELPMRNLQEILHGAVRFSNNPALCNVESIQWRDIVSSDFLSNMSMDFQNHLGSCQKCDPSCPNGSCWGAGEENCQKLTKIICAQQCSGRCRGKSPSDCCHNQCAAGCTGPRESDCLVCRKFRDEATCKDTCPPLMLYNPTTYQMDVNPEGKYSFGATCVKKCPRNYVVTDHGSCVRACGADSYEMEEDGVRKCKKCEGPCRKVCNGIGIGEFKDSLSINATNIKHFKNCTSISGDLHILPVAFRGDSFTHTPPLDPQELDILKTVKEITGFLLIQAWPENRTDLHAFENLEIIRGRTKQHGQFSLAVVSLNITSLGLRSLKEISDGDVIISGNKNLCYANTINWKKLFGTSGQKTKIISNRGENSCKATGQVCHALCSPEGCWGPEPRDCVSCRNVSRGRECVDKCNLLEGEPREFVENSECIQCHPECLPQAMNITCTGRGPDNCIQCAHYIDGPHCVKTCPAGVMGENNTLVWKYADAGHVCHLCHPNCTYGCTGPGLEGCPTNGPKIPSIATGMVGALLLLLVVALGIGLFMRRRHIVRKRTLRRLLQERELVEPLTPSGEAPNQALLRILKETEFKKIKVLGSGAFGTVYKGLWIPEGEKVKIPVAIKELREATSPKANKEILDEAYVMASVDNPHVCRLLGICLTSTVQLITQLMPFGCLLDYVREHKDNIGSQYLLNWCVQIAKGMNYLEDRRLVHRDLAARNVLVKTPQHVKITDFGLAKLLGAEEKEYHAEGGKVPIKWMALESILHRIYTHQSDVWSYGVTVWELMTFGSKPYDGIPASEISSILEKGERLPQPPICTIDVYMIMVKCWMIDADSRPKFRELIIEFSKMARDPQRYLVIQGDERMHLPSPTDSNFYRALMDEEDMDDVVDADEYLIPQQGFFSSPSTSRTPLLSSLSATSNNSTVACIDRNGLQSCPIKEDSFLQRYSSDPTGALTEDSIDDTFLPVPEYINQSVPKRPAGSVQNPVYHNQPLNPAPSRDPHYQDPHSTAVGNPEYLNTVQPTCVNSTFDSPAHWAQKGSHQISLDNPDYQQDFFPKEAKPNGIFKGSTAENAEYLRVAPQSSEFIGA

| Structure (SMILES) | MIC (Candida albicans 10231) | MIC (Candida tropicals 750) | MIC [1] | MIC (Aspergillus flavus) | MIC [2] | MIC range against the tested yeasts and fungi strains [3] | IC50 [5] | IC50 ([6]; Homo sapiens, MCF7, MCF7 cells) | IC50 [7] | MIC [8] | MIC (Bacillus subtilis 6633) | MIC (Bacillus cereus 33018) | MIC (Escherichia coli 8739) | MIC [9] | melting point | IC50 (EGFR kinase) | MIC range against the tested bacterial strains (five bacterial strains) | further results |
| --- | --- | --- | --- | --- | --- | --- | --- | --- | --- | --- | --- | --- | --- | --- | --- | --- | --- | --- |
| Clc1ccccc1C(c1ccccc1)(c1ccccc1)n1ccnc1 [Clotrimazole, clotrimazole, reference compound] | 16 mg/L (≈ 46.4 µM) | 8 mg/L (≈ 23.2 µM) | 8 mg/L (≈ 23.2 µM) | 8 mg/L (≈ 23.2 µM) | 8 mg/L (≈ 23.2 µM) | 4 to 16 mg/L | – | – | – | – | – | – | – | – | – | – | – | MIC range of the reference drugs [4]: 4 to 16 µM |
| COc1cccc2c1C(=O)c1c(O)c3c(c(O)c1C2=O)C[C@@](O)(C(=O)CO)C[C@@H]3O[C@H]1C[C@H](N)[C@H](O)[C@H](C)O1 [Doxorubicin, doxorubicin, reference compound] | – | – | – | – | – | – | 2.85 ± 0.21 µM | 3.58 ± 0.33 µM | 432 ± 19.3 µM | – | – | – | – | – | – | – | – | – |
| Cc1cc(C)c2c(n1)sc1c(Cl)nc(Cl)nc12 [Compound 3a, 2,4-Dichloro-7,9-dimethylpyrido[3′,2′:4,5]thieno[3,2-d]pyrimidine] | 16 mg/L (≈ 56.3 µM) | 8 mg/L (≈ 28.2 µM) | 8 mg/L (≈ 28.2 µM) | 8 mg/L (≈ 28.2 µM) | 8 mg/L (≈ 28.2 µM) | 4 to 16 mg/L | 2.31 ± 0.35 µM | 7.24 ± 0.64 µM | 417 ± 15.2 µM | 4 mg/L (≈ 14.1 µM) | 4 mg/L (≈ 14.1 µM) | 8 mg/L (≈ 28.2 µM) | 8 mg/L (≈ 28.2 µM) | 16 mg/L (≈ 56.3 µM) | 250 to 251 °C | 0.0173 ± 0.00024 µM | – | MIC range, antibacterial and antifungal ([4]; range over bacterial and fungal strains): 4 to 16 mg/L |
| Cc1ccc(-c2cc(-c3ccccc3)nc3sc4c(c23)NC2(CCCC2)NC4=O)cc1 [Compound 6b, 7′-Phenyl-9′-(p-tolyl)-1′H-spiro[cyclopentane-1,2′-pyrido[3′,2′:4,5]thieno[3,2-d]pyrimidin]-4′(3′H)-one] | 8 mg/L (≈ 18.8 µM) | 8 mg/L (≈ 18.8 µM) | 8 mg/L (≈ 18.8 µM) | 16 mg/L (≈ 37.6 µM) | 8 mg/L (≈ 18.8 µM) | 4 to 16 mg/L | 2.75 ± 0.13 µM | 9.89 ± 0.55 µM | 395 ± 10.2 µM | 4 mg/L (≈ 9.4 µM) | 8 mg/L (≈ 18.8 µM) | 16 mg/L (≈ 37.6 µM) | 8 mg/L (≈ 18.8 µM) | 16 mg/L (≈ 37.6 µM) | 210 °C | 0.05319 ± 0.00046 µM | – | IC50 ([6]; MCF7 cells): 9.89 ± 0.55 µM |
| Cc1ccc(-c2cc(-c3ccccc3)nc3sc4c(c23)NC2(CCCCC2)NC4=O)cc1 [Compound 6d, 7′-Phenyl-9′-(p-tolyl)-1′H-spiro[cyclohexane-1,2′-pyrido[3′,2′:4,5]thieno[3,2-d]pyrimidin]-4′(3′H)-one] | 64 mg/L (≈ 146 µM) | 64 mg/L (≈ 146 µM) | 32 mg/L (≈ 72.8 µM) | 32 mg/L (≈ 72.8 µM) | 16 mg/L (≈ 36.4 µM) | – | 4.45 ± 0.22 µM | 21.7 ± 0.7 µM | – | 8 mg/L (≈ 18.2 µM) | 32 mg/L (≈ 72.8 µM) | 8 mg/L (≈ 18.2 µM) | 32 mg/L (≈ 72.8 µM) | 32 mg/L (≈ 72.8 µM) | 263 °C | – | 8 to 32 mg/L | – |
| Cc1cc(C)c2c(n1)sc1c(=O)[nH]c(CCl)nc12 [Compound 4a, 2-(Chloromethyl)-7,9-dimethylpyrido[3′,2′:4,5]thieno[3,2-d]pyrimidin-4(3H)-one] | 16 mg/L (≈ 57.2 µM) | 16 mg/L (≈ 57.2 µM) | 8 mg/L (≈ 28.6 µM) | 8 mg/L (≈ 28.6 µM) | 8 mg/L (≈ 28.6 µM) | 4 to 16 mg/L | 2.99 ± 0.15 µM | 15.4 ± 0.45 µM | 460 ± 11.1 µM | 4 mg/L (≈ 14.3 µM) | 8 mg/L (≈ 28.6 µM) | 4 mg/L (≈ 14.3 µM) | 8 mg/L (≈ 28.6 µM) | 16 mg/L (≈ 57.2 µM) | 330 to 331 °C | 0.027 µM and 0.0536 µM | – | Fold more potent than erlotinib (EGFR inhibition) (EGFR kinase; relative to erlotinib): 1.5 fold |
| Cc1cc(C)c2c3c(sc2n1)C(=O)NC1(CCCCC1)N3 [Compound 6c, 7′,9′-Dimethyl-1′H-spiro[cyclohexane-1,2′-pyrido[3′,2′:4,5]thieno[3,2-d]pyrimidin]-4′(3′H)-one] | 16 mg/L (≈ 53.1 µM) | 4 mg/L (≈ 13.3 µM) | 16 mg/L (≈ 53.1 µM) | 4 mg/L (≈ 13.3 µM) | 8 mg/L (≈ 26.5 µM) | 4 to 16 mg/L | 12.1 ± 0.33 µM | 22.2 ± 0.67 µM | – | 4 mg/L (≈ 13.3 µM) | 4 mg/L (≈ 13.3 µM) | 8 mg/L (≈ 26.5 µM) | 8 mg/L (≈ 26.5 µM) | 16 mg/L (≈ 53.1 µM) | 290 to 291 °C | – | – | IC50 [10]: 12.1 to 77.4 µM |
| CC1(C)S[C@@H]2[C@H](NC(=O)[C@H](N)c3ccc(O)cc3)C(=O)N2[C@H]1C(=O)O [Amoxicillin, amoxicillin trihydrate, reference compound] | – | – | – | – | – | – | – | – | – | 4 mg/L | 8 mg/L | 16 mg/L | 8 mg/L | 16 mg/L | – | – | 4 to 16 mg/L | MIC range of the reference drugs [4]: 4 to 16 µM |
| Cc1cc(C)c2c3c(sc2n1)C(=O)NC1(CCCC1)N3 [Compound 6a, 7′,9′-Dimethyl-1′H-spiro[cyclopentane-1,2′-pyrido[3′,2′:4,5]thieno[3,2-d]pyrimidin]-4′(3′H)-one] | 64 mg/L (≈ 223 µM) | 16 mg/L (≈ 55.7 µM) | 32 mg/L (≈ 111 µM) | 64 mg/L (≈ 223 µM) | 32 mg/L (≈ 111 µM) | – | 52.2 ± 1.45 µM | 77.4 ± 3.62 µM | – | 32 mg/L (≈ 111 µM) | 16 mg/L (≈ 55.7 µM) | 8 mg/L (≈ 27.8 µM) | 32 mg/L (≈ 111 µM) | 16 mg/L (≈ 55.7 µM) | 245 to 246 °C | – | 8 to 32 mg/L | IC50 [10]: 12.1 to 77.4 µM |
| Cc1ccc(-c2cc(-c3ccccc3)nc3sc4c(c23)NC2(CCCC2)N=C4SCC(N)=O)cc1 [Compound 8b, 2-((7′-Phenyl-9′-(p-tolyl)-1′H-spiro[cyclopentane-1,2′-pyrido[3′,2′:4,5]thieno[3,2-d]pyrimidin]-4′-yl)sulfanyl)acetamide] | 8 mg/L (≈ 16 µM) | 16 mg/L (≈ 32.1 µM) | 16 mg/L (≈ 32.1 µM) | 8 mg/L (≈ 16 µM) | 8 mg/L (≈ 16 µM) | 4 to 16 mg/L | 2.79 ± 0.08 µM | 13.5 ± 0.76 µM | 401 ± 17.3 µM | 4 mg/L (≈ 8.02 µM) | 8 mg/L (≈ 16 µM) | 16 mg/L (≈ 32.1 µM) | 8 mg/L (≈ 16 µM) | 16 mg/L (≈ 32.1 µM) | 148 to 149 °C | 0.03844 ± 0.00025 µM | – | – |
